Results: article PMC10794144, “A novel antibiotic class targeting the lipopolysaccharide transporter” (Nature, 2024)
Read-outs that look alike come from different tables or passages of the source.

How the values were obtained:
A. baumannii = experiment: microbe, parasite or virus in culture; settings: Acinetobacter baumannii, 100%
In short: (§1)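 Broth microdilution per CLSI M07/M100, with inocula diluted from a 0.5 McFarland suspension in CAMHB, or LB for A. baylyi. MIC was read as the lowest concentration inhibiting growth by eye or beyond which OD600 stopped decreasing.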

E. coli ATCC 25922 = experiment: microbe, parasite or virus in culture; settings: for MIC: Escherichia coli
In short: as §1

C[C@@H](O)[C@H]1C(=O)N2C(C(=O)O)=C(S[C@@H]3CN[C@H](C(=O)N(C)C)C3)[C@H](C)[C@H]12 [meropenem, reference compound]
≤0.06 µg/mL: MIC 100% (E. coli ATCC 25922; Study LGC277937) | MIC 100% (E. coli ATCC 25922; Study LGC279800) | MIC 100% (E. coli ATCC 25922; Study LGC281440) | MIC 100% (E. coli ATCC 25922; Study LGC282160) | MIC 100% (E. coli ATCC 25922; Study LGC282623) | MIC 100% (E. coli ATCC 25922; Study LGC283932) | MIC 100% (E. coli ATCC 25922; Study LGC284200) | MIC 100% (E. coli ATCC 25922; Study LGC284879) | MIC 100% (E. coli ATCC 25922; Study LGC285582) | MIC 100% (E. coli ATCC 25922; Study LGC286210) | MIC 100% (E. coli ATCC 25922; Study LGC293598) | MIC 100% (E. coli ATCC 25922; Study LGC294355) | MIC 100% (E. coli ATCC 25922; Study LGC295147) | MIC 100% (E. coli ATCC 25922; Study LGC296813) | MIC 100% (E. coli ATCC 25922; Study LGC299544) | MIC 100% (E. coli ATCC 25922; Study LGC301026) | MIC 100% (E. coli ATCC 25922; Study LGC308175) | MIC 100% (E. coli ATCC 25922; Study ROC003) | MIC 100% (E. coli ATCC 25922; Study ROC004) | MIC 100% (E. coli ATCC 25922; Study ROC005) | MIC 100% (E. coli ATCC 25922; Study ROC006) | MIC 100% (E. coli ATCC 25922; Study ROC007) | MIC 100% (E. coli ATCC 25922; Study ROC008) | MIC 100% (E. coli ATCC 25922; Study ROC009) | MIC 100% (E. coli ATCC 25922; Study ROC010) | MIC 100% (E. coli ATCC 25922; Study ROC013)
32 µg/mL: MIC (A. baumannii; read-out: MIC 100%, ROB08708, Study ROC009) | MIC (A. baumannii; read-out: MIC 100%, ROB08708, Study ROC013) | MIC (A. baumannii; read-out: MIC 100%, ROB08709, Study LGC277937) | MIC (A. baumannii; read-out: MIC 100%, ROB08709, Study LGC279800) | MIC (A. baumannii; read-out: MIC 100%, ROB08709, Study LGC281440) | MIC (A. baumannii; read-out: MIC 100%, ROB08709, Study LGC282623) | MIC (A. baumannii; read-out: MIC 100%, ROB08709, Study LGC283932) | MIC (A. baumannii; read-out: MIC 100%, ROB08709, Study LGC284200) | MIC (A. baumannii; read-out: MIC 100%, ROB08709, Study LGC284879) | MIC (A. baumannii; read-out: MIC 100%, ROB08709, Study LGC285582) | MIC (A. baumannii; read-out: MIC 100%, ROB08709, Study LGC286210) | MIC (A. baumannii; read-out: MIC 100%, ROB08709, Study LGC293598) | MIC (A. baumannii; read-out: MIC 100%, ROB08709, Study LGC294355) | MIC (A. baumannii; read-out: MIC 100%, ROB08709, Study LGC299544) | MIC (A. baumannii; read-out: MIC 100%, ROB08709, Study LGC308175) | MIC (A. baumannii; read-out: MIC 100%, ROB08709, Study ROC013) | MIC (A. baumannii; read-out: MIC 100%, ROB08710, Study LGC281440) | MIC (A. baumannii; read-out: MIC 100%, ROB08710, Study LGC282623) | MIC (A. baumannii; read-out: MIC 100%, ROB08710, Study LGC283932) | MIC (A. baumannii; read-out: MIC 100%, ROB08710, Study LGC284200) | MIC (A. baumannii; read-out: MIC 100%, ROB08710, Study LGC284879) | MIC (A. baumannii; read-out: MIC 100%, ROB08710, Study LGC285582) | MIC (A. baumannii; read-out: MIC 100%, ROB08710, Study LGC286210) | MIC (A. baumannii; read-out: MIC 100%, ROB08710, Study LGC293598) | MIC (A. baumannii; read-out: MIC 100%, ROB08710, Study LGC294355) | MIC (A. baumannii; read-out: MIC 100%, ROB08710, Study LGC296813) | MIC (A. baumannii; read-out: MIC 100%, ROB08710, Study LGC301026) | MIC (A. baumannii; read-out: MIC 100%, ROB08710, Study LGC308175) | MIC (A. baumannii; read-out: MIC 100%, ROB08710, Study ROC004) | MIC (A. baumannii; read-out: MIC 100%, ROB08710, Study ROC005) | MIC (A. baumannii; read-out: MIC 100%, ROB08710, Study ROC008) | MIC (A. baumannii; read-out: MIC 100%, ROB08710, Study ROC010) | MIC (A. baumannii; read-out: MIC 100%, ROB08710, Study ROC012) | MIC (A. baumannii; read-out: MIC 100%, ROB08710, Study ROC013)
16 µg/mL: MIC (A. baumannii; read-out: MIC 100%, ROB08708, Study ROC007) | MIC (A. baumannii; read-out: MIC 100%, ROB08708, Study ROC008) | MIC (A. baumannii; read-out: MIC 100%, ROB08708, Study ROC010) | MIC (A. baumannii; read-out: MIC 100%, ROB08708, Study ROC012) | MIC (A. baumannii; read-out: MIC 100%, ROB08709, Study LGC282160) | MIC (A. baumannii; read-out: MIC 100%, ROB08709, Study LGC295147) | MIC (A. baumannii; read-out: MIC 100%, ROB08709, Study LGC296813) | MIC (A. baumannii; read-out: MIC 100%, ROB08709, Study LGC301026) | MIC (A. baumannii; read-out: MIC 100%, ROB08709, Study ROC005) | MIC (A. baumannii; read-out: MIC 100%, ROB08709, Study ROC007) | MIC (A. baumannii; read-out: MIC 100%, ROB08709, Study ROC008) | MIC (A. baumannii; read-out: MIC 100%, ROB08709, Study ROC009) | MIC (A. baumannii; read-out: MIC 100%, ROB08709, Study ROC010) | MIC (A. baumannii; read-out: MIC 100%, ROB08709, Study ROC012)
64 µg/mL: MIC (A. baumannii; read-out: MIC 100%, ROB08708, Study ROC006) | MIC (A. baumannii; read-out: MIC 100%, ROB08709, Study ROC004) | MIC (A. baumannii; read-out: MIC 100%, ROB08709, Study ROC006) | MIC (A. baumannii; read-out: MIC 100%, ROB08710, Study LGC277937) | MIC (A. baumannii; read-out: MIC 100%, ROB08710, Study LGC279800) | MIC (A. baumannii; read-out: MIC 100%, ROB08710, Study LGC282160) | MIC (A. baumannii; read-out: MIC 100%, ROB08710, Study LGC295147) | MIC (A. baumannii; read-out: MIC 100%, ROB08710, Study LGC299544) | MIC (A. baumannii; read-out: MIC 100%, ROB08710, Study ROC006) | MIC (A. baumannii; read-out: MIC 100%, ROB08710, Study ROC007) | MIC (A. baumannii; read-out: MIC 100%, ROB08710, Study ROC009)
≤ 0.06 µg/mL: MIC (E. coli ATCC 25922; ATCC25922) | MIC (E. coli ATCC 25922; ATCC25922, read-out: MIC 100%)
